In ChEMBL document CHEMBL1151288, “Dichlorinated pulvinic acid derivative from a Malaysian Scleroderma sp” (J Nat Prod, 2005) one finds zone of inhibition and IC50 data, which are given here for three compounds.

One assay has as its system Bacillus subtilis. In words: Antibacterial activity against Bacillus subtilis at 40 ug. It is filed as functional. As to conditions: read-out: IZ.
A further assay deals with P388. In words: Cytotoxicity against mouse P388 cells. It is filed as functional, cell-based.

`COC(=O)/C(=C1/OC(=O)C(c2ccc(OC)cc2)=C1O)c1ccc(OC)c(Cl)c1`: in the assay with Bacillus subtilis, the zone of inhibition at 40 µg/disc is 7 mm.
Still for that read-out and setting: for `COC(=O)/C(=C1/OC(O)=C(c2ccc(OC)cc2)C1=O)c1ccc(OC)cc1` the value was 8 mm.
The IC50 is the concentration needed to halve the response being measured. Low values mean higher potency, high ones lower potency. On to `COC(=O)/C(=C1/OC(=O)C(c2ccc(OC)cc2)=C1O)c1cc(Cl)c(OC)c(Cl)c1`, for which, in the assay on Bacillus subtilis, the zone of inhibition at 40 µg/disc is 4 mm. Further, in the assay on P388, inhibition was half-maximal at 20.6 µM (IC50).
